{
  "source": "patent US20100160268A1",
  "about": "“Isoflavonoid Analogs and their Metal Conjugates as Anti-Cancer Agents” (priority 2005, published 2010)",
  "key": {"[1]": {"tested_on": "MCF-7, T47D, BT20, MDA-MB231, PC3, BxPC3, COLO357 cancer cell lines", "assay": "MTT assay, panel of breast, prostate and pancreatic cancer cell lines", "assay_type": "cell-based", "settings": "in words", "experimental": "(§1) The compounds were tested in multiple panels of breast (MCF-7, T47D, BT20 and MDA-MB231), prostate (PC3), and pancreatic (BxPC3, COLO357) cancer cell lines, using the dye 3-[4,5 dimethylthiazol-2-yl]-2,5 diphenyltetrazolium bromide (MTT assay) according to a method described in Banerjee, et al., Cancer Research, Vol. 62, page 4945 (2002).\nMore specifically, the tumor cell lines MCF-7, MDA-MB 231 and COLO 357 were maintained in Dulbecco's modifed Eagle's medium (DMEM) with phenol red. Cell lines T47D, BT20, PC3 and BxPC3 were routinely cultured in RPMI medium, each medium being supplemented with Penicillin (50 U/ml), Streptomycin (50 μg/ml) and 10% fetal calf serum (FCS) (Gibco, Myclone). The cell lines were cultured in a humidified incubator in an atmosphere of 5% CO2 and were maintained in continuous exponential growth by twice a week passage.\nAdherent cells at a logarithmic phase were detached by addition of 2-3 ml of trypsin (Gibco), 0.02% EDTA mixture and incubation at 37° C. Cells were plated (100 μL per well) in 48 well flat bottom microtiter plates at densities of 2000 to 5000 per cm^2 (MCF-7, […], T47D, BT20, PC3, BxPC3, COLO357) cells per well. Cells were incubated for 24 h at 37° C. to resume exponential growth. […] Cell proliferation was evaluated after 72h by means of MTT assay."}, "[2]": {"tested_on": "Akt, p-Akt and PARP in PC3 cells", "assay": "Western blot of Akt, p-Akt and PARP", "assay_type": "cell-based, human", "settings": "10 and 20 μM, 72 h", "experimental": "Control cells were incubated in the medium with Na2CO3 using same time point. After incubation the cells were lysed with This-HCl (62.5 mm) and 2% SDS. Protein concentration was then measured using […] protein assay (Pierce Chemical Co., Rockford, Ill.). Cell extracts were subjected to 10% SDS-PAGE and electrophoretically transferred to nitrocellulose membrane. Membranes were then incubated with monoclonal anti-Akt (epitome: amino acids 345-480 of Akt1, 1:500; Ontogeny, 26. San Diego, Calif.), anti-phosphor-Akt Ser473 (1:1000; Cell Signaling, Beverly, Mass.), primary monoclonal anti-PARP antibody (1:5000; Biomol, Plymouth Meeting, Pa.) and anti-β-actin (1:5000; Sigma) antibodies, washed with TTBS, and incubated with secondary antibody conjugated with peroxidase. The signal was then detected using the chemiluminescent detection system (Pierce, Rockford, Ill.)."}, "NF-κB": {"tested_on": "NF-κB", "assay": "EMSA of NF-κB in tumor tissue of orthotopic pancreatic model", "assay_type": "in vivo, mice", "experimental": "The redox sensitive transcription factor NF-κB, is downstream of the Akt kinase protein and plays major role in the cell proliferation and metastasis and resistance in major cancers such as breast, prostate and pancreatic. […] Nuclear proteins were extracted from the tumor tissue as described previously (see, for example, Banerjee, et al., Cancer Research, Vo. 65, p. 9064 (2005)) and kept at −70° C. until use. Protein concentration was determined using the bicinchonic acid assay kit with BSA as the standard (Pierce Chemical Co., Rockford, Ill.). The incubation mixture included 25 mM DTT and 2.5% Tween 20 in a binding buffer. The DNA-protein complex formed was separated from free oligonucleotide on 8.0% native polyacralyamide gel using buffer containing 50 mM Tris, 200 mm glycine, pH 8.5, and 1 mM EDTA, and then visualized by Odyssey Infrared Imaging System using Odyssey Software Release 1.1.\nHowever, there were significant differences in the pattern of necrosis, inflammatory response and fibrosis among these two groups. […] The viable tumor cells form large nests or sheets with minimal stromal fibrosis and inflammatory infiltrates. […] Only 20% of the mass was viable. The viable neoplastic cells form small nests of clusters associated with extensive stromal fibrosis and inflammatory infiltrates (See, FIG. 10c). […]"}, "tumor cells": {"tested_on": "tumor cells", "assay": "Incubation with copper conjugate at IC50 concentration, viability and apoptosis (data not shown)", "assay_type": "cell-based"}, "[3]": {"tested_on": "breast cancer cell line (T47D)", "assay": "Propidium iodide / Hoechst 33342 fluorescence microscopy for apoptosis", "assay_type": "cell-based", "experimental": "To provide further evidence of apoptosis, we carried out […] using a mixture of propidium iodide (PI) and Hoechst dye 33342 to determine the integrity of cell membranes of cancer cells. The quantification of the apoptosis was carried out by cell count after staining with PI followed by visualization of treated cells by fluorescence analysis. The fluorescent dyes PI and Hoechst 33342 were added to the cell culture medium after treatment with the test compounds (10 μM) for 48 h at a final concentrations of 10 μg/ml (PI dye) and Hoechst 33342 (1 μg/ml), respectively. After 5 minutes at 37° C. the cells were placed under a fluorescence microscope (Nikon Optiphot) with a filter block giving excitation at 380 nm and 480 nm."}, "COLO 357 cells": {"tested_on": "COLO 357 cells", "assay": "Orthotopic pancreatic tumor model", "assay_type": "in vivo", "from_the_text": "Since the NF-κB pathway is regulated by Akt protein, the effects of the FPA-124 on NF-κB activity was studied in an in vivo experiment, specifically the well-established orthotopic pancreatic tumor model using COLO 357 cells."}, "[4]": {"tested_on": "vascular endothelial growth factor (VEGF) in BxPC3 cells", "assay": "In vitro expression of VEGF (ELISA)", "assay_type": "cell-based, human", "settings": "10 μM, 20 μM, 72 h", "experimental": "BxPC3 cells (0.1×10^6/well) were plated into 6-well plates and incubated in supplemented RPMI containing 10% FBS."}, "[5]": {"tested_on": "Colo357, BxPC3, BT20, and PC3 cells", "assay": "Cell Death Detection ELISA apoptosis assay", "assay_type": "cell-based", "settings": "FIG. 15, among FPA-124, FPA-125, FPA-127", "experimental": "To determine whether the metal conjugates induce apoptosis in tumor cells, quantitative evaluation of apoptosis was carried out with a Cell Death Detection ELISA kit (Roche, Palo Alto, Calif.). Apoptosis was detected according to the protocol supplied by the manufacturer.\nSince all copper compounds are redox active metal conjugates, we believe that redox triggered oxidative stress may be one of the underlying mechanisms for the observed apoptotic cell death in the present case. […] This observation is also in accordance with the favorable distortion factor calculated for the present copper compounds using EPR spectra, which factor helps stabilize cuprous and cupric species without dissociation of the conjugate."}, "[6]": {"tested_on": "BT20, PC3, Colo357 and BxPC3 cancer cell lines", "assay": "MTT cell proliferation assay, four cell lines", "assay_type": "cell-based", "settings": "text b152; read-out: IC50 values in multiple cancer cell lines", "experimental": "as §1\nAdherent cells at a logarithmic phase were detached by addition of 2-3 ml of trypsin (Gibco), 0.02% EDTA mixture and incubation at 37° C. Cells were plated (100 μL per well) in 48 well flat bottom microtiter plates at densities of 2000 to 5000 per cm^2 (MCF-7, […], T47D, BT20, PC3, BxPC3, COLO357) cells per well. Cells were incubated for 24 h at 37° C. to resume exponential growth. The test compounds were dissolved in DMSO (final concentration 0.1%) and added to the cells 24 h after seeding at varying concentrations. Control wells containing the culture medium, were included in each experiment. Cell proliferation was evaluated after 72h by means of MTT assay.\nThe biological effects of these compounds were studied against the hormone independent breast (BT20) and prostate (PC3) cancers as well as K-ras positive (Colo357) and K-ras negative (BxPC3) pancreatic cancer cell lines."}, "[7]": {"settings": "FPA-102 25 mg/kg i.v. on alternate days"}},
  "data": [
    {"compound": "CC(=O)C1CCC2C3CCC4=CC(=NNC(N)=S)CCC4(C)C3CCC12C", "note": "(centres unmarked) [FPA-101, 17-acetyl-10,13-dimethyl-1,2,6,7,8,9,11,12,13,14,15,16,17-tetradecahydrocyclopenta[a]phenanthren-3-thiosemicarbazone]", "values": [
      {"measurement": "antiproliferative action against the cell lines tested", "setting": "[1]", "result": "moderate antiproliferative action"}
    ]},
    {"compound": "CC(=O)C1CCC2C3CCC4=CC(=NNC(N)=S)CCC4(C)C3CCC12C.[Cl][Cu][Cl]", "note": "(centres unmarked) [FPA-102]", "values": [
      {"measurement": "PARP degradation / cleavage", "setting": "[2]", "result": "induces poly (ADP-ribose) polymerase degradation"},
      {"measurement": "phosphor-Akt level", "setting": "[2]", "result": "down regulates"},
      {"measurement": "NF-κB in the tumor tissue (EMSA)", "setting": "NF-κB; treatment for 10 days once every alternate day", "result": "down-regulation of NF-κB"},
      {"measurement": "apoptotic cells", "setting": "tumor cells; 24-48 h treatment at IC50 concentration", "result": "~95", "unit": "%"},
      {"measurement": "non-viable cells", "setting": "tumor cells; 3 h incubation at IC50 concentration", "result": 40, "unit": "%"},
      {"measurement": "cell morphology after PI/Hoechst staining", "setting": "[3]; IC50 concentration (10 μM), FIG. 7b", "result": "nuclear condensation and membrane damage"},
      {"measurement": "potency of inducing apoptosis among the metal conjugates", "setting": "[3]; comparison within series FPA-102 to FPA-104", "result": "highest potency of inducing apoptosis"},
      {"measurement": "body weight of treated mice (toxicity)", "setting": "COLO 357 cells; [7]", "result": "no significant change in the body weight"},
      {"measurement": "tumor burden", "setting": "COLO 357 cells; [7]", "result": "decrease tumor burden"},
      {"measurement": "viable part of tumor mass", "setting": "COLO 357 cells; tumor histology of treated mice", "result": 20, "unit": "%"},
      {"measurement": "VEGF levels", "setting": "[4]", "result": "decrease in the VEGF levels"}
    ]},
    {"compound": "NC1=[S+][Cu-2]([Cl])([Cl])[N+](=Cc2coc3ccccc3c2=O)N1", "note": "[FPA-124]", "values": [
      {"measurement": "NF-κB activity in the tumor tissue (EMSA)", "setting": "NF-κB; FPA-124, FIG. 17c", "result": "significantly decreased"},
      {"measurement": "apoptosis by ELISA, ranking", "setting": "[5]", "result": "most active compound"},
      {"measurement": "body weight of the treated animals (toxicity)", "setting": "COLO 357 cells; FPA-124, FIG. 17a", "result": "no change in the body weight"},
      {"measurement": "tumor load", "setting": "COLO 357 cells; FPA-124, FIG. 17b", "result": "decrease in the tumor load"}
    ]},
    {"compound": "O=c1c(-c2ccc(O)cc2)coc2cc(O)cc(O)c12", "note": "[Genistein, 4,5,7,-trihydroxyisoflavone]", "values": [
      {"measurement": "IC50", "setting": "[6]", "result": "> 40", "unit": "µM"}
    ]}
  ]
}
